The text below walks through data of patent US12226405B2, “Compounds and compositions for inhibiting the activity of HIF2-alpha and their methods of use” (Novartis AG, priority 2020, dated 2025).

The subject of assay [1] is HIF2α-regulated expression of the endogenous target gene hEGLN3 in 786-O cells. The experiment in a line: Cellular iScript assay for HIF2α (quantitative RT-PCR of hEGLN3). It is filed as cell-based, human. The conditions noted are these: Homo sapiens, 786-0, 48 hours incubation. Put shortly: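 786-O cells were exposed to eleven 2-fold compound dilutions for 48 h at 37° C. Lysates underwent one-step TaqMan qRT-PCR for hEGLN3 with beta-actin as reference; 2^(−ΔΔCt) versus DMSO, as % of control, was fit with a four-parameter model to give IC50.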

In assay [2] the test system is HIF2α-dependent transcription in 786-O-HRE-Luc cells. Kind of assay: In vitro cellular hypoxia response element (HRE) reporter gene assay (RGA) for HIF2α. It is filed as cell-based, human. The conditions noted are these: Homo sapiens, 24 hours incubation. Put shortly:
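Renal carcinoma cells carrying a 4×HRE-driven PEST-destabilised firefly luciferase were treated a day after seeding with eleven 2-fold compound dilutions (0.1% DMSO) for 24 h at 37° C. BrightGlo luminescence, background-subtracted and expressed as % of DMSO control, was fitted four-parametrically for IC50.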
On the technique in general: Reporter assays use an easily measured gene product as a stand-in for the process of interest.

In assay [3] the target is HIF2α PAS-B domain (236-350, biotinylated on the N-terminus) (Homo sapiens (Human), UniProt Q99814).
HIF2α PAS-B domain (236-350, biotinylated on the N-terminus), sequence (Q99814 236-350): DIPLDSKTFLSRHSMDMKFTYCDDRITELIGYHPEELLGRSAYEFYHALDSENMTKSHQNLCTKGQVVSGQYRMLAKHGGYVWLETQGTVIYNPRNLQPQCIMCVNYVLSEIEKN
Protocol: The assay buffer contained 50 mM Tris-HCl pH7 (Sigma), 20 mM NaCl (Fluka), 0.02% BSA (Sigma), 0.005% Triton X-100 (Pierce) and 1 mM DTT (Fluka). After a 30 min incubation period, 5 μL Streptavidin PVT SPA Beads (Perkin Elmer) at 1.2 mg/mL, diluted in the buffer, were added.

SMILES strings stand for the structures. pIC50: −log10 of the molar value.

As a reminder, the pIC50 is the IC50 on a negative log10 scale, so that one unit is a factor of ten. Low readings indicate a large IC50, high ones a small IC50. In the case of `Fc1cccc2c1CCC[C@@]21CN2C=C(C(F)(F)F)C=C(OC(F)F)C2=N1` [Example 28, (S)-8-(difluoromethoxy)-5′-fluoro-6-(trifluoromethyl)-3′,4′-dihydro-2′H,3H-spiro[imidazo[1,2-a]pyridine-2,1′-naphthalene]], the figures for the pIC50 in assay [1], in assay [2] and in assay [3] were 7.18, 6.77 and 8.30, respectively.

As to `FC1=CC(C(F)(F)F)=CN2C[C@@]3(CCCc4c3ccc(F)c4F)N=C12` [Example 29, (S)-5′,6′,8-trifluoro-6-(trifluoromethyl)-3′,4′-dihydro-2′H,3H-spiro[imidazo[1,2-a]pyridine-2,1′-naphthalene]], the values for the pIC50 in assay [1], in assay [2] and in assay [3] were 7.03, 5.88 and 8.10, respectively.

With `COC1=CC(C(F)(F)F)=CN2C[C@@]3(CCC(F)(F)c4c3ccnc4Cl)N=C12` [Example 30, (S)-1′-chloro-8′,8′-difluoro-8-methoxy-6-(trifluoromethyl)-7′,8′-dihydro-3H,6′H-spiro[imidazo[1,2-a]pyridine-2,5′-isoquinoline]], the pIC50 in assay [1] was 6.89; in assay [2], 5.87; in assay [3], 7.57.

Take `Cc1nccc2c1C(F)(F)CC[C@@]21CN2C=C(C(F)(F)F)C=C(OC(F)F)C2=N1` [Example 32, (S)-8-(difluoromethoxy)-8′,8′-difluoro-1′-methyl-6-(trifluoromethyl)-7′,8′-dihydro-3H,6′H-spiro[imidazo[1,2-a]pyridine-2,5′-isoquinoline]]: the pIC50 is 7.11 in assay [1], 6.06 in assay [2] and 7.89 in assay [3].

Take `[2H]C([2H])([2H])c1nccc2c1C(F)(F)CC[C@@]21CN2C=C(C(F)(F)F)C=C(OC(F)F)C2=N1` [Example 33, (S)-8-(difluoromethoxy)-8′,8′-difluoro-1′-(methyl-d3)-6-(trifluoromethyl)-7′,8′-dihydro-3H, 6′H-spiro[imidazo[1,2-a]pyridine-2,5′-isoquinoline]]: the values for the pIC50 in assay [1], in assay [2] and in assay [3] were 7.11, 6.26 and 7.77, respectively.

For `COc1nccc2c1C(F)(F)CC[C@@]21CN2C=C(C(F)(F)F)C=C(OC(F)F)C2=N1` [Example 34, (S)-8-(difluoromethoxy)-8′,8′-difluoro-1′-methoxy-6-(trifluoromethyl)-7′,8′-dihydro-3H, 6′H-spiro[imidazo[1,2-a]pyridine-2,5′-isoquinoline]], the pIC50 was 6.71 in assay [1], 5.84 in assay [2] and 7.64 in assay [3].

On to `N#CC1=CN2C[C@@]3(CCCc4cc(F)ccc43)N=C2C(OC(F)F)=C1` [Example 35, (S)-8-(difluoromethoxy)-6′-fluoro-3′,4′-dihydro-2′H,3H-spiro[imidazo[1,2-a]pyridine-2,1′-naphthalene]-6-carbonitrile], for which the values for the pIC50 in assay [1], in assay [2] and in assay [3] were 7.08, 6.57 and 8.05, respectively.

On to `FC(F)OC1=CC(C(F)(F)F)=CN2C[C@@]3(CCCc4c3ccnc4Cl)N=C12` [Example 36, (S)-1′-chloro-8-(difluoromethoxy)-6-(trifluoromethyl)-7′,8′-dihydro-3H,6′H-spiro[imidazo[1,2-a]pyridine-2,5′-isoquinoline]], for which the negative logarithm of the IC50 (pIC50) was 7.14 in assay [1], 6.83 in assay [2] and 8.22 in assay [3].

In the case of `FC(F)OC1=CC(C(F)(F)F)=CN2C[C@@]3(CCCc4cc(Cl)ncc43)N=C12` [Example 37, (S)-3′-chloro-8-(difluoromethoxy)-6-(trifluoromethyl)-6′,7′-dihydro-3H,5′H-spiro[imidazo[1,2-a]pyridine-2,8′-isoquinoline]], the values for the pIC50 in assay [1], in assay [2] and in assay [3] were 7.05, 6.51 and 7.60, respectively.

On to `N#Cc1ccc2c(c1)CCC[C@@]21CN2C=C(C(F)(F)F)C=C(OC(F)F)C2=N1` [Example 38, (S)-8-(difluoromethoxy)-6-(trifluoromethyl)-3′,4′-dihydro-2′H,3H-spiro[imidazo[1,2-a]pyridine-2,1′-naphthalene]-6′-carbonitrile], for which the pIC50 in assay [1] was 7.08; in assay [2] it was 6.49; in assay [3] it was 7.92.

`Fc1c(Br)ccc2c1OCC[C@@]21CN2C=C(C(F)(F)F)C=C(OC(F)F)C2=N1` [Example 39, (S)-7-bromo-8′-(difluoromethoxy)-8-fluoro-6′-(trifluoromethyl)-3′H-spiro[chroman-4,2′-imidazo[1,2-a]pyridine]]: the pIC50 in assay [1] was 7.31; in assay [2] it was 6.60; in assay [3] it was at least 8.22.

For the compound `Fc1c(C(F)(F)F)ccc2c1OCC[C@@]21CN2C=C(C(F)(F)F)C=C(OC(F)F)C2=N1` [Example 40, (S)-8′-(difluoromethoxy)-8-fluoro-6′,7-bis(trifluromethyl)-3′H-spiro[chroman-4,2′-imidazo[1,2-a]pyridine]], the pIC50 in assay [1] was 7.30; in assay [2] it was 6.72; in assay [3], 8.22.

`FC(F)OC1=CC(C(F)(F)F)=CN2C[C@@]3(CCOc4cc(Cl)ccc43)N=C12` [Example 41, (S)-7-chloro-8′-(difluoromethoxy)-6′-(trifluoromethyl)-3′H-spiro[chroman-4,2′-imidazo[1,2-a]pyridine]]: the pIC50 in assay [1] is 7.27; in assay [2], 6.55; in assay [3], 7.96.

In the case of `FCOC1=CC(C(F)(F)F)=CN2C[C@@]3(CCOc4c3ccc(Br)c4F)N=C12` [Example 42, (S)-7-bromo-8-fluoro-8′-(fluoromethoxy)-6′-(trifluoromethyl)-3′H-spiro[chroman-4,2′-imidazo[1,2-a]pyridine]], the pIC50 in assay [1] is 7.14; in assay [2], 7.02; in assay [3], 8.10.

Turning to `Fc1c(Cl)ccc2c1OCC[C@@]21CN2C=C(C(F)(F)F)C=C(OC(F)F)C2=N1` [Example 43, (S)-7-chloro-8′-(difluoromethoxy)-8-fluoro-6′-(trifluoromethyl)-3′H-spiro[chroman-4,2′-imidazo[1,2-a]pyridine]], the values for the pIC50 in assay [1], in assay [2] and in assay [3] were 7.23, 6.74 and 8.00, respectively.

Consider `Fc1ccc2c(c1F)OCC[C@@]21CN2C=C(C(F)(F)F)C=C(OC(F)F)C2=N1` [Example 45, (S)-8′-(difluoromethoxy)-7,8-difluoro-6′-(trifluoromethyl)-3′H-spiro[chroman-4,2′-imidazo[1,2-a]pyridine]], for which the pIC50 in assay [1] was 7.07; in assay [2], 6.50; in assay [3] it was at least 8.00.

On to `Cc1ccc2c(c1F)OCC[C@@]21CN2C=C(C(F)(F)F)C=C(OC(F)F)C2=N1` [Example 46, (S)-8′-(difluoromethoxy)-8-fluoro-7-methyl-6′-(trifluoromethyl)-3′H-spiro[chroman-4,2′-imidazo[1,2-a]pyridine]], for which the pIC50 in assay [1] was 7.30; in assay [2], 7.17; in assay [3] it was 7.89.

On to `Fc1cccc2c1OCC[C@@]21CN2C=C(C(F)(F)F)C=C(OC(F)F)C2=N1` [Example 47, (S)-8′-(difluoromethoxy)-8-fluoro-6′-(trifluoromethyl)-3′H-spiro[chroman-4,2′-imidazo[1,2-a]pyridine]], for which the negative-log IC50 (pIC50) is 7.09 in assay [1], 6.16 in assay [2] and 7.96 in assay [3].

Turning to `FC(F)OC1=CC(C(F)(F)F)=CN2C[C@@]3(CCOc4c(Cl)cccc43)N=C12` [Example 48, (S)-8-chloro-8′-(difluoromethoxy)-6′-(trifluoromethyl)-3′H-spiro[chroman-4,2′-imidazo[1,2-a]pyridine]], the results for the pIC50 in assay [1], in assay [2] and in assay [3] were 7.20, 6.01 and at least 8.00, respectively.

As to `N#CC1=CN2C[C@@]3(CCOc4c3ccc(Br)c4F)N=C2C(OC(F)F)=C1` [Example 49, (S)-7-bromo-8′-(difluoromethoxy)-8-fluoro-3′H-spiro[chroman-4,2′-imidazo[1,2-a]pyridine]-6′-carbonitrile], the results for the pIC50 in assay [1], in assay [2] and in assay [3] were 6.76, 6.01 and 7.92, respectively.

On to `FC(F)OC1=CC(C(F)(F)F)=CN2C[C@@]3(CCOc4cc(Br)ccc43)N=C12` [Example 50, (S)-7-bromo-8′-(difluoromethoxy)-6′-(trifluoromethyl)-3′H-spiro[chroman-4,2′-imidazo[1,2-a]pyridine]], for which the pIC50 in assay [1] was 7.21; in assay [2], 6.82; in assay [3], at least 8.00.

Turning to `N#CC1=CN2C[C@@]3(CCOc4c3ccc(I)c4F)N=C2C(OC(F)F)=C1` [Example 51, (S)-8′-(difluoromethoxy)-8-fluoro-7-iodo-3′H-spiro[chroman-4,2′-imidazo[1,2-a]pyridine]-6′-carbonitrile], the pIC50 in assay [1] is 7.09; in assay [2], 6.29; in assay [3], 8.05.

With `Fc1c(Br)ccc2c1OCC[C@@]21CN2C=C(Cl)C=C(OC(F)F)C2=N1` [Example 52, (S)-7-bromo-6′-chloro-8′-(difluoromethoxy)-8-fluoro-3′H-spiro[chroman-4,2′-imidazo[1,2-a]pyridine]], the pIC50 in assay [1] is 7.06; in assay [2], 6.38; in assay [3] it was 7.96.

As for `FC(F)(F)C1=CN2C[C@@]3(CCOc4cc(C(F)(F)F)ccc43)N=C2C(Cl)=C1` [Example 53, (S)-8′-chloro-6′,7-bis(trifluoromethyl)-3′H-spiro[chroman-4,2′-imidazo[1,2-a]pyridine]], the pIC50 in assay [1] was 6.74; in assay [2], 6.08; in assay [3] it was 7.85.
